According to patent US20220289794A1, “SYNTHETIC ANTIMICROBIAL PEPTIDES” (priority 2019, published 2022):
Converted amounts (≈) assume the structure as drawn. Non-standard residues stand in square brackets, D forms with d. Residues, ends and D or L forms follow the SMILES beside them. Dip = N[C@H](C(=O)O)C(c1ccccc1)c1ccccc1; 2Nal = N[C@@H](Cc1ccc2ccccc2c1)C(=O)O

Experiments:
[1] = system: Pseudomonas aeruginosa (ATCC 27883); conditions: ATCC 27883
human red blood cells = system: human red blood cells; set-up: unit not given beside the values
[2] = system: Escherichia coli (ATCC 25922); conditions: ATCC 25922
[3] = system: Methicillin-resistant Staphylococcus aureus MRSA (ATCC BAA-1556); conditions: ATCC BAA-1556
S. aureus ATCC 29213 = conditions: ATCC 29213

| SMILES | MIC P. aeruginosa ATCC 27883 [1] | HC50 (human red blood cells) | MIC E. coli ATCC 25922 [2] | MIC MRSA ATCC BAA-1556 [3] | MIC S. aureus ATCC 29213 (S. aureus ATCC 29213) |
| --- | --- | --- | --- | --- | --- |
| N=C(N)NCCC[C@H](NC(=O)[C@H](Cc1ccc2ccccc2c1)NC(=O)[C@H](Cc1ccc2ccccc2c1)NC(=O)[C@H](CCCNC(=N)N)NC(=O)[C@H](CCCNC(=N)N)NC(=O)[C@H](Cc1ccc2ccccc2c1)NC(=O)[C@@H](N)CCCNC(=N)N)C(=O)O [IFX-018-1, NH2-Arg-NaI-Arg-Arg-NaI-NaI-Arg-OH] (H-R[2Nal]RR[2Nal][2Nal]R-OH) | 50 µg/mL (≈ 40.5 µM) | 405 | 25 µg/mL (≈ 20.3 µM) | 25 µg/mL (≈ 20.3 µM) | 12.5 µg/mL (≈ 10.1 µM) |
| N=C(N)NCCC[C@H](NC(=O)[C@H](CCCNC(=N)N)NC(=O)[C@H](Cc1ccc2ccccc2c1)NC(=O)[C@H](Cc1ccc2ccccc2c1)NC(=O)[C@H](CCCNC(=N)N)NC(=O)[C@@H](N)CCCNC(=N)N)C(=O)N[C@@H](Cc1ccc2ccccc2c1)C(=O)O [IFX-019-1, NH2-Arg-Arg-NaI-NaI-Arg-Arg-NaI-OH] (H-RR[2Nal][2Nal]RR[2Nal]-OH) | 25 µg/mL (≈ 20.3 µM) | 395 | 25 µg/mL (≈ 20.3 µM) | 25 µg/mL (≈ 20.3 µM) | 12.5 µg/mL (≈ 10.1 µM) |
| N=C(N)NCCC[C@H](NC(=O)[C@H](CCCNC(=N)N)NC(=O)[C@@H](N)CCCNC(=N)N)C(=O)N[C@@H](Cc1c[nH]c2ccccc12)C(=O)N[C@@H](Cc1ccc2ccccc2c1)C(=O)N[C@@H](Cc1ccc2ccccc2c1)C(=O)O [IFX-023-1, NH2-R-R-R-Trp-NaI-NaI-OH] (H-RRRW[2Nal][2Nal]-OH) | 25 µg/mL (≈ 23.4 µM) | 495 | 12.5 µg/mL (≈ 11.7 µM) | 6.2 µg/mL (≈ 5.81 µM) | 6.2 µg/mL (≈ 5.81 µM) |
| N=C(N)NCCC[C@H](NC(=O)[C@H](CCCNC(=N)N)NC(=O)[C@H](CCCNC(=N)N)NC(=O)[C@@H](N)CCCNC(=N)N)C(=O)N[C@@H](Cc1c[nH]c2ccccc12)C(=O)N[C@@H](Cc1ccc2ccccc2c1)C(=O)N[C@@H](Cc1ccc2ccccc2c1)C(=O)O [IFX-029-1, NH2-R-R-R-R-Trp-NaI-NaI-OH] (H-RRRRW[2Nal][2Nal]-OH) | 50 µg/mL (≈ 40.9 µM) | 400 | 12.5 µg/mL (≈ 10.2 µM) | 3.1 µg/mL (≈ 2.53 µM) | 3.1 µg/mL (≈ 2.53 µM) |
| N=C(N)NCCC[C@H](NC(=O)[C@H](CCCNC(=N)N)NC(=O)[C@H](CCCNC(=N)N)NC(=O)[C@@H](N)CCCNC(=N)N)C(=O)N[C@@H](Cc1ccc2ccccc2c1)C(=O)N[C@@H](Cc1c[nH]c2ccccc12)C(=O)N[C@@H](Cc1ccc2ccccc2c1)C(=O)O [IFX-030-1, NH2-R-R-R-R-NaI-Trp-NaI-OH] (H-RRRR[2Nal]W[2Nal]-OH) | 25 µg/mL (≈ 20.4 µM) | 430 | 12.5 µg/mL (≈ 10.2 µM) | 6.2 µg/mL (≈ 5.07 µM) | 6.2 µg/mL (≈ 5.07 µM) |
| N=C(N)NCCC[C@H]1NC(=O)[C@@H](CCCNC(=N)N)NC(=O)[C@@H](CCCNC(=N)N)NC(=O)[C@@H](Cc2c[nH]c3ccccc23)NC(=O)[C@@H](Cc2c[nH]c3ccccc23)NC(=O)[C@@H](Cc2c[nH]c3ccccc23)NC(=O)[C@@H](Cc2c[nH]c3ccccc23)NC(=O)[C@@H](CCCNC(=N)N)NC1=O [IFX-032, c[arg-arg-arg-arg-trp-trp-trp-trp]] (cyclo([dR][dR][dR][dR][dW][dW][dW][dW])) | 25 µg/mL (≈ 18.3 µM) | 230 | 25 µg/mL (≈ 18.3 µM) | 6.2 µg/mL (≈ 4.53 µM) | 6.2 µg/mL (≈ 4.53 µM) |
| N=C(N)NCCC[C@@H]1NC(=O)[C@@H](CCCNC(=N)N)NC(=O)[C@H](CCCNC(=N)N)NC(=O)[C@@H](Cc2c[nH]c3ccccc23)NC(=O)[C@H](Cc2c[nH]c3ccccc23)NC(=O)[C@@H](Cc2c[nH]c3ccccc23)NC(=O)[C@H](Cc2c[nH]c3ccccc23)NC(=O)[C@@H](CCCNC(=N)N)NC1=O [IFX-033, c[Arg-arg-Arg-arg-Trp-trp-Trp-trp]] (cyclo(R[dR]R[dR]W[dW]W[dW])) | 25 µg/mL (≈ 18.3 µM) | 95 | 12.5 µg/mL (≈ 9.13 µM) | 6.2 µg/mL (≈ 4.53 µM) | 6.2 µg/mL (≈ 4.53 µM) |
| N=C(N)NCCC[C@@H]1NC(=O)[C@@H](CCCNC(=N)N)NC(=O)[C@H](Cc2c[nH]c3ccccc23)NC(=O)[C@@H](Cc2c[nH]c3ccccc23)NC(=O)[C@H](Cc2c[nH]c3ccccc23)NC(=O)[C@@H](Cc2c[nH]c3ccccc23)NC(=O)[C@H](CCCNC(=N)N)NC(=O)[C@@H](CCCNC(=N)N)NC1=O [IFX-034, c[arg-Arg-arg-Arg-trp-Trp-trp-Trp]] (cyclo(R[dR]R[dW]W[dW]W[dR])) | 25 µg/mL (≈ 18.3 µM) | 320 | 12.5 µg/mL (≈ 9.13 µM) | 6.2 µg/mL (≈ 4.53 µM) | 6.2 µg/mL (≈ 4.53 µM) |

More lines, now with the values ahead:

| MIC P. aeruginosa ATCC 27883 [1] | HC50 (human red blood cells) | MIC E. coli ATCC 25922 [2] | MIC MRSA ATCC BAA-1556 [3] | MIC S. aureus ATCC 29213 (S. aureus ATCC 29213) | SMILES |
| --- | --- | --- | --- | --- | --- |
| 25 µg/mL (≈ 19 µM) | 370 | 25 µg/mL (≈ 19 µM) | 12.5 µg/mL (≈ 9.52 µM) | 12.5 µg/mL (≈ 9.52 µM) | N=C(N)NCCC[C@H](NC(=O)[C@H](CCCNC(=N)N)NC(=O)[C@@H](NC(=O)[C@@H](NC(=O)[C@H](CCCNC(=N)N)NC(=O)[C@@H](N)CCCNC(=N)N)C(c1ccccc1)c1ccccc1)C(c1ccccc1)c1ccccc1)C(=O)N[C@H](C(=O)O)C(c1ccccc1)c1ccccc1 [IFX-017-1, NH2-Arg-Arg-Dip-Dip-Arg-Arg-Dip-OH] (H-RR[Dip][Dip]RR[Dip]-OH) |
| 25 µg/mL (≈ 22.3 µM) | 310 | 6.2 µg/mL (≈ 5.54 µM) | 6.2 µg/mL (≈ 5.54 µM) | 6.2 µg/mL (≈ 5.54 µM) | N=C(N)NCCC[C@H](NC(=O)[C@H](CCCNC(=N)N)NC(=O)[C@@H](N)CCCNC(=N)N)C(=O)N[C@@H](Cc1c[nH]c2ccccc12)C(=O)N[C@H](C(=O)N[C@H](C(=O)O)C(c1ccccc1)c1ccccc1)C(c1ccccc1)c1ccccc1 [IFX-020-1, NH2-R-R-R-Trp-Dip-Dip-OH] (H-RRRW[Dip][Dip]-OH) |
| 50 µg/mL (≈ 44.7 µM) | 325 | 12.5 µg/mL (≈ 11.2 µM) | 6.2 µg/mL (≈ 5.54 µM) | 6.2 µg/mL (≈ 5.54 µM) | N=C(N)NCCC[C@H](NC(=O)[C@H](CCCNC(=N)N)NC(=O)[C@@H](N)CCCNC(=N)N)C(=O)N[C@H](C(=O)N[C@@H](Cc1c[nH]c2ccccc12)C(=O)N[C@H](C(=O)O)C(c1ccccc1)c1ccccc1)C(c1ccccc1)c1ccccc1 [IFX-021-1, NH2-R-R-R-Dip-Trp-Dip-OH] (H-RRR[Dip]W[Dip]-OH) |
| 50 µg/mL (≈ 44.7 µM) | 380 | 25 µg/mL (≈ 22.3 µM) | 12.5 µg/mL (≈ 11.2 µM) | 12.5 µg/mL (≈ 11.2 µM) | N=C(N)NCCC[C@H](NC(=O)[C@H](CCCNC(=N)N)NC(=O)[C@@H](N)CCCNC(=N)N)C(=O)N[C@H](C(=O)N[C@H](C(=O)N[C@@H](Cc1c[nH]c2ccccc12)C(=O)O)C(c1ccccc1)c1ccccc1)C(c1ccccc1)c1ccccc1 [IFX-022-1, NH2-R-R-R-Dip-Dip-Trp-OH] (H-RRR[Dip][Dip]W-OH) |
| 25 µg/mL (≈ 23.4 µM) | 410 | 12.5 µg/mL (≈ 11.7 µM) | 6.2 µg/mL (≈ 5.81 µM) | 6.2 µg/mL (≈ 5.81 µM) | N=C(N)NCCC[C@H](NC(=O)[C@H](CCCNC(=N)N)NC(=O)[C@@H](N)CCCNC(=N)N)C(=O)N[C@@H](Cc1ccc2ccccc2c1)C(=O)N[C@@H](Cc1c[nH]c2ccccc12)C(=O)N[C@@H](Cc1ccc2ccccc2c1)C(=O)O [IFX-024-1, NH2-R-R-R-NaI-Trp-NaI-OH] (H-RRR[2Nal]W[2Nal]-OH) |
| 50 µg/mL (≈ 46.8 µM) | 375 | 25 µg/mL (≈ 23.4 µM) | 12.5 µg/mL (≈ 11.7 µM) | 12.5 µg/mL (≈ 11.7 µM) | N=C(N)NCCC[C@H](NC(=O)[C@H](CCCNC(=N)N)NC(=O)[C@@H](N)CCCNC(=N)N)C(=O)N[C@@H](Cc1ccc2ccccc2c1)C(=O)N[C@@H](Cc1ccc2ccccc2c1)C(=O)N[C@@H](Cc1c[nH]c2ccccc12)C(=O)O [IFX-025-1, NH2-R-R-R-NaI-NaI-Trp-OH] (H-RRR[2Nal][2Nal]W-OH) |
| 25 µg/mL (≈ 19.6 µM) | 430 | 12.5 µg/mL (≈ 9.8 µM) | 6.2 µg/mL (≈ 4.86 µM) | 6.2 µg/mL (≈ 4.86 µM) | N=C(N)NCCC[C@H](NC(=O)[C@H](CCCNC(=N)N)NC(=O)[C@H](CCCNC(=N)N)NC(=O)[C@@H](N)CCCNC(=N)N)C(=O)N[C@@H](Cc1c[nH]c2ccccc12)C(=O)N[C@H](C(=O)N[C@H](C(=O)O)C(c1ccccc1)c1ccccc1)C(c1ccccc1)c1ccccc1 [IFX-026-1, NH2-R-R-R-R-Trp-Dip-Dip-OH] (H-RRRRW[Dip][Dip]-OH) |
| 25 µg/mL (≈ 19.6 µM) | 910 | 12.5 µg/mL (≈ 9.8 µM) | 3.1 µg/mL (≈ 2.43 µM) | 3.1 µg/mL (≈ 2.43 µM) | N=C(N)NCCC[C@H](NC(=O)[C@H](CCCNC(=N)N)NC(=O)[C@@H](N)CCCNC(=N)N)C(=O)N[C@@H](CCCNC(=N)N)C(=O)N[C@H](C(=O)N[C@@H](Cc1c[nH]c2ccccc12)C(=O)N[C@H](C(=O)O)C(c1ccccc1)c1ccccc1)C(c1ccccc1)c1ccccc1 [IFX-027-1, NH2-R-R-R-R-Dip-Trp-Dip-OH] (H-RRRR[Dip]W[Dip]-OH) |
| 50 µg/mL (≈ 39.2 µM) | 570 | 25 µg/mL (≈ 19.6 µM) | 6.2 µg/mL (≈ 4.86 µM) | 6.2 µg/mL (≈ 4.86 µM) | N=C(N)NCCC[C@H](NC(=O)[C@H](CCCNC(=N)N)NC(=O)[C@@H](N)CCCNC(=N)N)C(=O)N[C@@H](CCCNC(=N)N)C(=O)N[C@H](C(=O)N[C@H](C(=O)N[C@@H](Cc1c[nH]c2ccccc12)C(=O)O)C(c1ccccc1)c1ccccc1)C(c1ccccc1)c1ccccc1 [IFX-028-1, NH2-R-R-R-R-Dip-Dip-Trp-OH] (H-RRRR[Dip][Dip]W-OH) |
